# Laboratory results reported in PubChem BioAssay AID1963851 (Molecular Pharmacology Branch, DTP, NCI, 2024).
# Tested on: 188146-221-R-J1-PDC complex spheroid viability
# Test: Anticancer human tumor 188146-221-R-J1-PDC patient-derived colon adenocarcinoma cell line growth inhibition [POLQ]
# Conditions: for IC50: curve of first compound; for viability, T/C: stronger effect = lower value
# Summary of the method: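 Three-cell-type spheroids modelling solid tumor plus stroma served as the readout system; POL inhibitors were tested individually and in combination, concentration ranges set by clinical Cmax where known.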
# [1] = second compound 0.0316 µM, first compound 0.0316 µM
# [2] = second compound 0.0316 µM, first compound 0.1 µM
# [3] = second compound 0.0316 µM, first compound 0.316 µM
# [4] = second compound 0.0316 µM, first compound 1 µM
# [5] = second compound 0.0316 µM, first compound 3.16 µM
# [6] = second compound 0.0316 µM, first compound 10 µM
# [7] = second compound 0.1 µM, first compound 0.0316 µM
# [8] = second compound 0.1 µM, first compound 0.1 µM
# [9] = second compound 0.1 µM, first compound 0.316 µM
# [10] = second compound 0.1 µM, first compound 1 µM
# [11] = second compound 0.1 µM, first compound 3.16 µM
# [12] = second compound 0.1 µM, first compound 10 µM
# [13] = second compound 0.316 µM, first compound 0.0316 µM
# [14] = second compound 0.316 µM, first compound 0.1 µM
# [15] = second compound 0.316 µM, first compound 0.316 µM
# [16] = second compound 0.316 µM, first compound 1 µM
# [17] = second compound 0.316 µM, first compound 3.16 µM
# [18] = second compound 0.316 µM, first compound 10 µM
# [19] = second compound 1 µM, first compound 0.0316 µM
# [20] = second compound 1 µM, first compound 0.1 µM
# [21] = second compound 1 µM, first compound 0.316 µM
# [22] = second compound 1 µM, first compound 1 µM
# [23] = second compound 1 µM, first compound 3.16 µM
# [24] = second compound 1 µM, first compound 10 µM
# [25] = second compound 3.16 µM, first compound 0.0316 µM
# [26] = second compound 3.16 µM, first compound 0.1 µM
# [27] = second compound 3.16 µM, first compound 0.316 µM
# [28] = second compound 3.16 µM, first compound 1 µM
# [29] = second compound 3.16 µM, first compound 3.16 µM
# [30] = second compound 3.16 µM, first compound 10 µM
# [31] = second compound 10 µM, first compound 0.0316 µM
# [32] = second compound 10 µM, first compound 0.1 µM
# [33] = second compound 10 µM, first compound 0.316 µM
# [34] = second compound 10 µM, first compound 1 µM
# [35] = second compound 10 µM, first compound 3.16 µM
# [36] = second compound 10 µM, first compound 10 µM
# 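Also: spheroids exposed to compounds for seven days.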
# 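For viability, T/C in this document: 100% = DMSO vehicle control viability.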
structure (smiles),measurement,setting,value
C#Cc1c(F)ccc2cc(O)cc(-c3ncc4c(N5CC6CCC(C5)N6)nc(OCC56CCCN5CC(F)C6)nc4c3F)c12 (stereo not drawn) + COC1C(OC(N)=O)C(O)C(Oc2ccc3c(O)c(NC(=O)c4ccc(O)c(CC=C(C)C)c4)c(=O)oc3c2C)OC1(C)C,IC50,second compound 0.0316 µM,> 10 µM
same,IC50,second compound 0.1 µM,> 10 µM
same,IC50,second compound 0.316 µM,> 10 µM
same,IC50,second compound 1 µM,> 10 µM
same,IC50,second compound 3.16 µM,> 10 µM
same,IC50,second compound 10 µM,> 10 µM
same,"viability, T/C",[1],105%
same,"viability, T/C",[2],93.5%
same,"viability, T/C",[3],100%
same,"viability, T/C",[4],100%
same,"viability, T/C",[5],103%
same,"viability, T/C",[6],83.1%
same,"viability, T/C",[7],122%
same,"viability, T/C",[8],94%
same,"viability, T/C",[9],92.5%
same,"viability, T/C",[10],95.9%
same,"viability, T/C",[11],85.2%
same,"viability, T/C",[12],93.5%
same,"viability, T/C",[13],113%
same,"viability, T/C",[14],95.9%
same,"viability, T/C",[15],102%
same,"viability, T/C",[16],92.8%
same,"viability, T/C",[17],92.5%
same,"viability, T/C",[18],103%
same,"viability, T/C",[19],112%
same,"viability, T/C",[20],96.1%
same,"viability, T/C",[21],100%
same,"viability, T/C",[22],90.5%
same,"viability, T/C",[23],93.8%
same,"viability, T/C",[24],88.8%
same,"viability, T/C",[25],106%
same,"viability, T/C",[26],103%
same,"viability, T/C",[27],110%
same,"viability, T/C",[28],87.2%
same,"viability, T/C",[29],104%
same,"viability, T/C",[30],82.6%
same,"viability, T/C",[31],100%
same,"viability, T/C",[32],98.6%
same,"viability, T/C",[33],108%
same,"viability, T/C",[34],97.2%
same,"viability, T/C",[35],95.6%
same,"viability, T/C",[36],92.8%
C=CCn1c(=O)c2cnc(Nc3ccc(N4CCN(C)CC4)cc3)nc2n1-c1cccc(C(C)(C)O)n1 + COC1C(OC(N)=O)C(O)C(Oc2ccc3c(O)c(NC(=O)c4ccc(O)c(CC=C(C)C)c4)c(=O)oc3c2C)OC1(C)C,IC50,second compound 0.0316 µM,> 1 µM
same,IC50,second compound 0.1 µM,0.933 µM
same,IC50,second compound 0.316 µM,> 1 µM
same,IC50,second compound 1 µM,> 1 µM
same,IC50,second compound 3.16 µM,> 1 µM
same,IC50,second compound 10 µM,0.908 µM
same,"viability, T/C","second compound 0.0316 µM, first compound 0.00316 µM",106%
same,"viability, T/C","second compound 0.0316 µM, first compound 0.01 µM",99.2%
same,"viability, T/C",[1],103%
same,"viability, T/C",[2],101%
same,"viability, T/C",[3],98%
same,"viability, T/C",[4],51.5%
same,"viability, T/C","second compound 0.1 µM, first compound 0.00316 µM",111%
same,"viability, T/C","second compound 0.1 µM, first compound 0.01 µM",106%
same,"viability, T/C",[7],101%
same,"viability, T/C",[8],98%
same,"viability, T/C",[9],91.5%
same,"viability, T/C",[10],46.8%
same,"viability, T/C","second compound 0.316 µM, first compound 0.00316 µM",85.1%
same,"viability, T/C","second compound 0.316 µM, first compound 0.01 µM",106%
same,"viability, T/C",[13],96.5%
same,"viability, T/C",[14],101%
same,"viability, T/C",[15],97.6%
same,"viability, T/C",[16],56.3%
same,"viability, T/C","second compound 1 µM, first compound 0.00316 µM",108%
same,"viability, T/C","second compound 1 µM, first compound 0.01 µM",100%
same,"viability, T/C",[19],102%
same,"viability, T/C",[20],95.9%
same,"viability, T/C",[21],87.7%
same,"viability, T/C",[22],55.2%
same,"viability, T/C","second compound 3.16 µM, first compound 0.00316 µM",102%
same,"viability, T/C","second compound 3.16 µM, first compound 0.01 µM",98.9%
same,"viability, T/C",[25],108%
same,"viability, T/C",[26],98.4%
same,"viability, T/C",[27],98%
same,"viability, T/C",[28],56.3%
same,"viability, T/C","second compound 10 µM, first compound 0.00316 µM",109%
same,"viability, T/C","second compound 10 µM, first compound 0.01 µM",96.9%
same,"viability, T/C",[31],100%
same,"viability, T/C",[32],100%
same,"viability, T/C",[33],98.1%
same,"viability, T/C",[34],45.6%
C=CC(=O)N1CCN(c2nc(=O)n(-c3c(C)ccnc3C(C)C)c3nc(-c4c(O)cccc4F)c(F)cc23)C(C)C1 (stereo not drawn) + COC1C(OC(N)=O)C(O)C(Oc2ccc3c(O)c(NC(=O)c4ccc(O)c(CC=C(C)C)c4)c(=O)oc3c2C)OC1(C)C,IC50,second compound 0.0316 µM,> 10 µM
same,IC50,second compound 0.1 µM,> 10 µM
same,IC50,second compound 0.316 µM,> 10 µM
same,IC50,second compound 1 µM,> 10 µM
same,IC50,second compound 3.16 µM,> 10 µM
same,IC50,second compound 10 µM,> 10 µM
same,"viability, T/C",[1],103%
same,"viability, T/C",[2],97%
same,"viability, T/C",[3],85.7%
same,"viability, T/C",[4],99.1%
same,"viability, T/C",[5],98.7%
same,"viability, T/C",[6],72.4%
same,"viability, T/C",[7],107%
same,"viability, T/C",[8],107%
same,"viability, T/C",[9],94.6%
same,"viability, T/C",[10],105%
same,"viability, T/C",[11],88.1%
same,"viability, T/C",[12],92.6%
same,"viability, T/C",[13],110%
same,"viability, T/C",[14],107%
same,"viability, T/C",[15],103%
same,"viability, T/C",[16],110%
same,"viability, T/C",[17],95.3%
same,"viability, T/C",[18],83.6%
same,"viability, T/C",[19],93.2%
same,"viability, T/C",[20],105%
same,"viability, T/C",[21],113%
same,"viability, T/C",[22],101%
same,"viability, T/C",[23],101%
same,"viability, T/C",[24],90.4%
same,"viability, T/C",[25],107%
same,"viability, T/C",[26],109%
same,"viability, T/C",[27],100%
same,"viability, T/C",[28],101%
same,"viability, T/C",[29],90.3%
same,"viability, T/C",[30],87.2%
same,"viability, T/C",[31],96%
same,"viability, T/C",[32],107%
same,"viability, T/C",[33],108%
same,"viability, T/C",[34],97.5%
same,"viability, T/C",[35],115%
same,"viability, T/C",[36],93.7%
CCc1cc2c(N3CCc4c(cc(Cn5ccnc5)cc4-c4cn(C)nc4C(F)(F)F)C3=O)ccnc2c(OC)n1 + Nc1ccc(C#CCN(C(=O)Cc2ncc(C(F)(F)F)cc2C(F)(F)F)c2ccc(F)cc2)nn1,IC50,second compound 0.0316 µM,> 10 µM
same,IC50,second compound 0.1 µM,9.81 µM
same,IC50,second compound 0.316 µM,> 10 µM
same,IC50,second compound 1 µM,9.79 µM
same,IC50,second compound 3.16 µM,> 10 µM
same,IC50,second compound 10 µM,> 10 µM
same,"viability, T/C",[1],105%
same,"viability, T/C",[2],107%
same,"viability, T/C",[3],90.8%
same,"viability, T/C",[4],93.7%
same,"viability, T/C",[5],73%
same,"viability, T/C",[6],54.6%
same,"viability, T/C",[7],110%
same,"viability, T/C",[8],116%
same,"viability, T/C",[9],87.9%
same,"viability, T/C",[10],104%
same,"viability, T/C",[11],82.3%
same,"viability, T/C",[12],48.6%
same,"viability, T/C",[13],119%
same,"viability, T/C",[14],108%
same,"viability, T/C",[15],101%
same,"viability, T/C",[16],91.4%
same,"viability, T/C",[17],75.6%
same,"viability, T/C",[18],51.3%
same,"viability, T/C",[19],113%
same,"viability, T/C",[20],101%
same,"viability, T/C",[21],85.8%
same,"viability, T/C",[22],95.6%
same,"viability, T/C",[23],72.4%
same,"viability, T/C",[24],48.2%
same,"viability, T/C",[25],106%
same,"viability, T/C",[26],91%
same,"viability, T/C",[27],94.1%
same,"viability, T/C",[28],87.8%
same,"viability, T/C",[29],87.1%
same,"viability, T/C",[30],50%
same,"viability, T/C",[31],110%
same,"viability, T/C",[32],113%
same,"viability, T/C",[33],107%
same,"viability, T/C",[34],82.5%
same,"viability, T/C",[35],71.2%
same,"viability, T/C",[36],52.5%
